Measured values reported in paper PMC2225448 (Structure(London, England:1993), 2007).

Target: T1, SOCS4/ElonginBC (Homo sapiens, UniProt Q15369+Q15370+Q8WXH5)
T1 construct: Human SOCS4 (amino acids 274–437); made in house; host or cells: E. coli BL21(DE3)
Test: ITC binding of phosphotyrosine peptides to SOCS4/ElonginBC
Details: 50 mM HEPES pH 7.5, 150 mM NaCl, 1 mM DTT, 20°C; for KB × 10^5: association constant, ± curve fitting error

[1] = 0.3–0.4 mM peptide injected into 15 μM protein, single binding site model

T1 sequence (Q8WXH5 274-437): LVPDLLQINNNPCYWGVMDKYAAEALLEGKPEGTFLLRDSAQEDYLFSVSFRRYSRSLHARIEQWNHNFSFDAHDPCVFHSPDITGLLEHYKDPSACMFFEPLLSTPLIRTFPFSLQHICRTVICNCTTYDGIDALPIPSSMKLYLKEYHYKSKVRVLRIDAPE
T1 sequence (Q15369 17-112 partner limits assumed): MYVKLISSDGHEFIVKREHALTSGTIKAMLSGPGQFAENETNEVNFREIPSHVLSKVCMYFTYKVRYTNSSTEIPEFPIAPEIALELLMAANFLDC
T1 sequence (Q15370 whole entry partner, the tested form may be a part): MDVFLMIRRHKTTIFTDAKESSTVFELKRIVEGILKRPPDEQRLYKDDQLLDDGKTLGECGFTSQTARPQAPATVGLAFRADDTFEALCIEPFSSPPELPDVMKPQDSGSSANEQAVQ
From the text: Blank titrations were subtracted from binding data, and data were processed by using ORIGIN software provided with the instrument.

Structure (SMILES) | KB × 10^5 | KD [1] | Kd [1] [µM]
CC[C@H](C)[C@H](NC(=O)[C@@H](NC(=O)[C@H](Cc1ccc(OP(=O)(O)O)cc1)NC(=O)[C@H](CCC(=O)O)NC(=O)[C@H](Cc1ccccc1)NC(=O)[C@H](CO)NC(=O)[C@H](C)N)[C@@H](C)O)C(=O)N[C@@H](CC(C)C)C(=O)N[C@@H](CC(=O)O)C(=O)N1CCC[C@H]1C(=O)N[C@@H](CO)C(=O)O [EpoR pY402] | 1.30 ± 0.16 10^5 M^−1 |  | 
CC(C)[C@H](NC(=O)[C@H](CCCCN)NC(=O)[C@H](Cc1ccc(O)cc1)NC(=O)[C@H](Cc1ccc(OP(=O)(O)O)cc1)NC(=O)[C@H](CCC(=O)O)NC(=O)[C@H](CCCCN)NC(=O)[C@H](CC(=O)O)NC(=O)[C@@H](N)CCC(N)=O)C(=O)N[C@@H](CCCCN)C(=O)N[C@@H](CCC(=O)O)C(=O)N1CCC[C@H]1C(=O)NCC(=O)O [JAK2 pY1007] | 3.43 ± 0.25 10^5 M^−1 | low micromolar | < 3
CC[C@H](C)[C@H](NC(=O)[C@H](Cc1ccc(O)cc1)NC(=O)[C@@H](NC(=O)[C@H](Cc1ccc(OP(=O)(O)O)cc1)NC(=O)[C@H](CC(N)=O)NC(=O)[C@H](CC(N)=O)NC(=O)CNC(=O)[C@@H](N)CC(N)=O)C(C)C)C(=O)N[C@@H](CC(=O)O)C(=O)N1CCC[C@H]1C(=O)N[C@H](C(=O)O)[C@@H](C)O [KIT pY568] | 3.43 ± 0.24 10^5 M^−1 |  | 
